Where a name gives a salt, the structure may show the parent alone.
Legend:
[1] = target: AChE, eel (acetylcholinesterase, EC 3.1.1.7) (Electrophorus electricus, UniProt O42275); format: biochemical, electric eel
[2] = target: BuChE, horse (butyrylcholinesterase, EC 3.1.1.8) (Equus caballus, UniProt P81908); format: biochemical
guinea pigs = conditions: guinea pig, in vivo; cited from earlier work

Chain of AChE, eel (acetylcholinesterase, EC 3.1.1.7) (O42275 24-633): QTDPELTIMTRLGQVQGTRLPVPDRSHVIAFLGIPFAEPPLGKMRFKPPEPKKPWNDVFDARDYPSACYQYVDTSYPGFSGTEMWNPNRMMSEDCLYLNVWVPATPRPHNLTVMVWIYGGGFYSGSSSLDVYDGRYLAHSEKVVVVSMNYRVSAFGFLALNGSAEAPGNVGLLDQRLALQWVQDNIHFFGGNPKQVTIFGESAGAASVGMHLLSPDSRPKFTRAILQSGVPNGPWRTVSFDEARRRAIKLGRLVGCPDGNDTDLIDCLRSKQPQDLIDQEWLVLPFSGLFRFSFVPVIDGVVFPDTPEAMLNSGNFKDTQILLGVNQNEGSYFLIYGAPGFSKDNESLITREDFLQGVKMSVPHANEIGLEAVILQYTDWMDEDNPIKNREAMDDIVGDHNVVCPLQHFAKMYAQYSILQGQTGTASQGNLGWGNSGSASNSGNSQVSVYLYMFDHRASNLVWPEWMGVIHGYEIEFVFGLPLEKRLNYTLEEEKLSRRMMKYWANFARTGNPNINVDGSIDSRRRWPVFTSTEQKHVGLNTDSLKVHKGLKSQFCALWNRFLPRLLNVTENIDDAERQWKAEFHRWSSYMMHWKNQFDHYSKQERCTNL
Chain of BuChE, horse (butyrylcholinesterase, EC 3.1.1.8) (P81908 whole entry): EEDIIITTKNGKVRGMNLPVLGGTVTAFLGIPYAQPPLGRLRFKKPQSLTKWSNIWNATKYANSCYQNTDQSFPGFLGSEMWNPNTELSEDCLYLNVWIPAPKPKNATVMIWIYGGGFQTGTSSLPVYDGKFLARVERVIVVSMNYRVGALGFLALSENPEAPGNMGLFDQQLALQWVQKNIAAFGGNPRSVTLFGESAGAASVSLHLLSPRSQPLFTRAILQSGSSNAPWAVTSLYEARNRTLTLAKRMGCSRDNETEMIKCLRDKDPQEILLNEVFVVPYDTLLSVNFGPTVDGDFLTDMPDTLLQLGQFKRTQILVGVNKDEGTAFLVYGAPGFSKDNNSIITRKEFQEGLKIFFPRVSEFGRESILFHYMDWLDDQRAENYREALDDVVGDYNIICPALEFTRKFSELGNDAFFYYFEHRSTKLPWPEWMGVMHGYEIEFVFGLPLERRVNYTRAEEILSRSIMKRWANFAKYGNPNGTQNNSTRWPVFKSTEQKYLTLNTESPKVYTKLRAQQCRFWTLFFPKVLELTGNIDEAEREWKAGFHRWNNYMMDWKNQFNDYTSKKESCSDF

| SMILES | effect of oxime on spontaneous reactivation of TDPI-inhibited AChE [1] | effect of oxime on reactivation of TDPI-inhibited BuChE [2] | maximum dosage which does not result in side-effects (guinea pigs) [mg/kg] |
| --- | --- | --- | --- |
| C[n+]1ccccc1C=NO.[I-] [2-PAM, 2-hydroximinomethyl-1-methylpyridinium iodide] | accelerated significantly the spontaneous reactivation | enhanced the reactivation of horse serum BuChE | – |
| C[n+]1cccc(C=NO)c1 [3-PAM] | did not enhance the regeneration of enzyme activity | – | – |
| CNC(=O)Oc1ccc2c(c1)[C@]1(C)CCN(C)[C@@H]1N2C [physostigmine sulfate] | – | – | 0.1 |
| CN(C)C(=O)Oc1ccc[n+](C)c1 [pyridostigmine iodide] | – | – | 0.1 |

From patent publication US4472320A (priority 1981, dated 1984)
